The values below come from patent US20180339015A1, “Therapeutic Nanoparticles Comprising An Antibiotic and Methods of Making and Using Same” (priority 2015, published 2018).

The subject of one data set is Klebsiella. The experiment in a line: Klebsiella thigh infection model, efficacy and biodistribution. Format: in vivo. How it is done:
CS-NPs were further tested for their efficacy and biodistribution in a Klebsiella thigh infection model. […] In summary. CS-NPs have the same efficacy as free CS in a thigh infection model after 24 hours.

For the next data set, the system named is K. pneumonia. In words: K. pneumonia lung infection model. It counts as in vivo. The following applies: single 40 mg/kg dose s.c., n=6. How it is done: CS-NPs were tested for their efficacy in a K. pneumonia lung infection model. Results are depicted in FIG. 11.
For data set [1] the following is noted: mice, intravenous injection.
For another data set, the system named is Enterobacter spp. The following applies: cited from earlier work.
For another data set, the system named is Acinetobacter species. The following applies: cited from earlier work.
In the next data set the test system is P. aeruginosa. As to conditions: cited from earlier work.
The test system of another data set is K. pneumoniae. The following applies: cited from earlier work.
Another data set deals with Shigella spp. The following applies: cited from earlier work.
Another data set relates to Salmonella spp. The following applies: cited from earlier work.
The next data set deals with E. coli. As to conditions: cited from earlier work.
The subject of a further data set is Citrobacter spp. As to conditions: cited from earlier work.

As to colistin sulphate [CS], the bacteremia result in the data set on Klebsiella (thigh infection model) was “prevented bacteremia”. Moreover, in the data set on Klebsiella (thigh, after 24 hours), the “bacteria counts in site of infection” value is listed as “significantly decreased bacteria counts”. The animals sterilized in the data set on K. pneumonia turned out to be 50%. Further, in [1], the “LD50” value is recorded as 6 mg/kg and the “MTD” value turned out to be 2 mg/kg.

In the case of colistin, in the data set with Enterobacter spp, the MIC50 is at most 1 µg/mL. The MIC90 with Acinetobacter species is at most 2 µg/mL; in the data set on P. aeruginosa it was at most 4 µg/mL; in the data set on K. pneumoniae it was at most 1 µg/mL; in the data set with Shigella spp, at most 0.5 µg/mL; in the data set with Salmonella spp, at most 1 µg/mL; in the data set with E. coli it was at most 2 µg/mL. The MIC90 in the data set on Citrobacter spp is at most 1 µg/mL.

The term LD50 denotes the dose expected to kill half of the subjects tested. One may read the MIC50 as an inhibitory concentration at the 50% level, which refers to growth in some studies and to a panel of isolates in others. Usually MIC90 stands for an inhibitory concentration at the 90% level, which refers to growth in some studies and to a panel of isolates in others.
